Experimental data reported in patent US10100284B2, “Method for inducing differentiation of pluripotent stem cells into endodermal cells” (TOAGOSEI CO., LTD., priority 2013, dated 2018).
Where no end group is shown, it is not given here.

Legend:
[1] = tested on: iPS cells (clone name: 201B2 or 201B7); test: Quantitative RT-PCR of stem cell marker gene and germ layer differentiation marker genes in iPS cells; format: cell-based, human; details: peptide concentration 6.0 μM, FIG. 3
Procedure: The stem cell differentiation-inducing activity of a differentiation-inducing synthetic peptide (Sample 1) obtained in Example 1 above was evaluated by measuring changes over time in the expressed amounts of a stem cell differentiation marker gene (that is, a stem cell marker gene) and differentiation marker genes for the three kinds of germ layer cells. iPS cells that had been cultured and passaged in vitro were used as the test cells. The specifics of the evaluation test were as follows.
iPS cells (clone name: 201B2 or 201B7) were cultured as in Example 2 except that Sample 1 that had been prepared with DMSO/EtOH=1/1 to a peptide concentration of 4 mM was added 1.5 μL/well (that is to a peptide concentration of 6.0 μM in the well). A peptide-free group was also established as a comparative example. The medium was replaced and peptide was added two days, four days and six days after initiation of iPS cell culture. […]
25 to […] of purified RNA was supplied to quantitative RT-PCR, and the expressed amounts of a stem cell marker gene and differentiation marker genes for the three kinds of germ layer cells were quantified. […] A One Step SYBR® PrimeScript® PLUS RT-PCR Kit (TaKaRa Bio) was used for the quantitative RT-PCR, in accordance with the attached manual. […] The quantitative RT-PCR reaction consisted of 5 minutes of incubation at 42° C. to perform reverse transcription, followed by 10 seconds of incubation at 95° C., and 40 cycles consisting of 5 seconds at 95° and 31 seconds at 63° C.
The quantitative results for expression of a stem cell marker gene and differentiation marker genes for the three kinds of germ layer cells are shown in FIG. 3. The expressed amounts of these genes were first corrected by the expressed amounts of the GAPDH gene in each test group, and the relative expressed amount of the gene in the Sample 1 group relative to the expressed amount of the gene in the peptide-free group was determined by the ΔΔCt method.

[2] = tested on: human-derived iPS cells (clone name: 201B2 or 201B7); test: Stem cell differentiation-inducing activity based on iPS cell transformation (optical microscope morphology); details: peptide concentration 4.0 μM; eight days after the beginning of culture; FIG. 1; peptide-free group 80% or more black (undifferentiated)
Procedure: The differentiation-inducing activity of a differentiation-inducing synthetic peptide (Sample 1) obtained in Example 1 above was evaluated based on the transformation of iPS cells cultured and passaged in vitro. A peptide-free group was also provided as a comparative example. The details of the evaluation test were as follows.
Cells supplied by the Kyoto University Center for iPS cell Research and Application were used as the human-derived iPS cells in this example (clone name: 201B2 or 201B7, reference source: Takahashi K et al., Cell, 131, 861-872 (2007)). For the feeder cells used in culturing these iPS cells, mouse embryonic fibroblasts (MEF cells) were used to passage (maintain) the iPS cells, while mouse embryonic fibroblasts (cell strain SNL 76/7) supplied under license by the Baylor College of Medicine were used in testing to evaluate the stem cell differentiation-inducing activity of the differentiation-inducing synthetic peptide (Sample 1).
Feeder cells that had been inactivated by mitomycin C treatment were seeded ahead of time on a gelatin-coated 24-well plate 1 to 4 days before seeding of the iPS cells. […]

Substance: LLLLLLVGLTAPAGKKRTLRKNDRKKR-CONH2 (LLLLLLVGLTAPAGKKRTLRKNDRKKR-NH2) [Sample 1]
- increase in the relative expressed amount of the AFP gene ([1]; 20th day after initiation of culture): particularly dramatic
- expression timing of endodermal cell marker genes SOX17, GATA4 and FOXA2 [1]: sooner than the AFP gene
- relative expressed amount of the AFP gene (endodermal marker gene) relative to peptide-free group (ΔΔCt, GAPDH corrected) ([1]; beginning 13 days after initiation of culture): increased much more than the relative expressed amounts of the other genes
- part of microscope field appearing white (occupied by colonies of differentiated iPS cells) [2]: ≥ 80%
